This is an account of results in patent US9056862B2, “Thioxothiazolidine derivative having Ras function inhibitory effect” (NATIONAL UNIVERSITY CORPORATION KOBE UNIVERSITY, priority 2011, dated 2015).

The structures appear in SMILES notation.

In assay [1] the target is T1, Ras-Raf binding.
T1 construct: fused on or other part: GST tag on Ras was cleaved off with PreScission protease before the test
The experiment in a line: In vitro binding assay: Ras-Raf binding inhibition (GST-Raf on resin, GTPγ[35S]-labeled Ras, scintillation counting). The conditions noted are these: GST-Raf fusion protein on resin, radioactive Ras, compound dissolved in 10% DMSO. How it is done: • 1) A fusion protein of Raf (target protein of Ras) and GST (glutathione S-transferase) was expressed in Escherichia coli using GST fusion protein expression vector (pGEX-6P-1 vector (GE Healthcare)). The expressed GST-Raf fusion protein was immobilized on an affinity carrier for purification (glutathione Sepharose 4B: resin (GE Healthcare)). • 2) Radioisotope-labeled Ras
GTPγ[^35S] (Perkin Elmer), which is one of the GTP analogs, was added to Ras in which GST tag was cleaved using GST fusion protein cleavage protease (PreScission protease (GE Healthcare)) to prepare radioisotope-labeled Ras. • 3) Measurement of Ras-Raf binding inhibition activity
GST-Raf fusion protein immobilized on the resin in the above-mentioned 1) and the radioactive Ras prepared in the above-mentioned 2) were incubated in the presence of various concentrations of a compound dissolved in 10% DMSO to promote the binding reaction between Ras and Raf. The resin in the reaction solution was washed, and then, the complex of GST-Raf fusion protein and radioactive Ras was eluted by adding glutathione. The binding activity between Ras and Raf was measured by scintillation counting of the radioactivity of the eluate. Thus, the Ras-Raf binding inhibition activity by addition of various compounds was evaluated.

Assay [2] concerns human colorectal cancer cell line, SW480, which has active form of K-Ras. The assay can be described thus: In vivo assay: tumor growth inhibition in SW480 xenograft in nude mice. The conditions noted are these: 80 mg/kg orally once a day, five consecutive days per week, after three-week administration; SW480 subcutaneous in female nude mice; control group = 100%. How it is done:
A cell suspension (about 2×10^6 cells) of human colorectal cancer cell line, SW480, which has active form of K-Ras, was subcutaneously inoculated and implanted with a syringe at the right flank of 6 to 8-week-old nude mice (female). After a tumor grew to the grossly recognizable size (40-100 mm^3), a compound (80 mg/kg) dissolved in a solvent (Cremophor EL:Ethanol:Water=1:1:6) was orally administered once a day for five consecutive days per week. This is considered as the compound administration group. A solvent alone was administered to control group in the same manner. After the compound administration started, tumor volumes of both the groups were measured twice a week. Tumor growth inhibition rates were calculated by comparing tumor volumes of control group (100%) and those of compound administration group after three-week administration to evaluate anticancer activity of a compound. The tumor growth inhibition rates in the case of orally administering compounds of the present invention at 80 mg/Kg are shown in the following Table 7.

For the compound `O=C1/C(=C/c2ccc(Oc3ccccc3)cc2)SC(=S)N1NC1=NS(=O)(=O)c2ccccc21` [Example 1, 3-[(4-oxo-5-(4-phenoxybenzylidene)-2-thioxothiazolidin-3-yl)amino]-1,2-benzisothiazole 1,1-dioxide], the IC50 in assay [1] came out at 70 µM. In assay [2], the “tumor growth inhibition rate (%)” value is reported as 88%.

Take `O=C1/C(=C/c2ccc(Br)cc2)SC(=S)N1NC1=NS(=O)(=O)c2ccccc21` [Example 6]: in assay [1], the IC50 was 400 µM. The “tumor growth inhibition rate (%)” value in assay [2] worked out at 85%.

For the compound `O=C1/C(=C/c2ccc([N+](=O)[O-])cc2[N+](=O)[O-])SC(=S)N1NC1=NS(=O)(=O)c2ccccc21` [Example 7], in assay [1], the half-inhibitory concentration (IC50) was found to be 200 µM. Further, the “tumor growth inhibition rate (%)” value in assay [2] is given as 85%.

Consider `O=C1/C(=C/c2cccc(Oc3ccccc3)c2)SC(=S)N1NC1=NS(=O)(=O)c2ccccc21` [Example 12], for which the 50% inhibitory concentration (IC50) in assay [1] was found to be 50 µM. Moreover, the “tumor growth inhibition rate (%)” value in assay [2] is recorded as 86%.

With `O=C1/C(=C/c2ccccc2Oc2ccccc2)SC(=S)N1NC1=NS(=O)(=O)c2ccccc21` [Example 13], the IC50 in assay [1] was found to be 100 µM. For the same compound, in assay [2], the “tumor growth inhibition rate (%)” value amounted to 70%.

Turning to `O=C1/C(=C/c2ccc(OCc3ccccc3)cc2)SC(=S)N1NC1=NS(=O)(=O)c2ccccc21` [Example 16], the IC50 in assay [1] came to 100 µM. The “tumor growth inhibition rate (%)” value in assay [2] is given as 69%.

Regarding `O=C1/C(=C/c2ccccc2OCCOc2ccccc2)SC(=S)N1NC1=NS(=O)(=O)c2ccccc21` [Example 53], the IC50 in assay [1] turned out to be 160 µM.

Take `Cc1ccc(OCCOc2ccccc2/C=C2\SC(=S)N(NC3=NS(=O)(=O)c4ccccc43)C2=O)cc1` [Example 55]: the 50% inhibitory concentration (IC50) in assay [1] stood at 100 µM.

Turning to `O=C1/C(=C/c2ccccc2OCCOc2ccc([N+](=O)[O-])cc2)SC(=S)N1NC1=NS(=O)(=O)c2ccccc21` [Example 56], the half-maximal inhibitory concentration (IC50) in assay [1] was found to be 90 µM. The “tumor growth inhibition rate (%)” value in assay [2] was 62%.

For `CC(C)(C)OC(=O)NCCOc1cccc(C=C2SC(=S)N(NC3=NS(=O)(=O)c4ccccc43)C2=O)c1` [Example 167, 3-[(4-Oxo-5-(3-(2-t-butoxycarbonylaminoethyloxy)benzylidene)-2-thioxothiazolidin-3-yl)amino]-1,2-benzothiazole 1,1-dioxide], in assay [1], the IC50 is 360 µM.

By IC50 is commonly meant the concentration that gives 50% inhibition.
